Reference: PubChem BioAssay AID342 (DTP/NCI, 2004)
Several values for one entry are separate records, joined by “and”; a condition that tells them apart may be missing. Equal values may be shown once.

Tested on: Swiss mice, Sarcoma 180 sc, mean tumor weight T/C
Experiment: NCI In Vivo Anticancer Drug Screen. Data for tumor model Sarcoma 180 (subcutaneous) in Swiss mice
Details: endpoint: mean tumor weight, higher = larger tumour
Method in brief: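 Transplantable tumors were established in mice, compound was given, then survival or tumor size was recorded. The treated value was divided by the vehicle-control value.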

[1] = dose: 250.0 mg/kg/injection, schedule: Q01DX007 (ip), vehicle: carboxymethylcellulose (CMC)
[2] = dose: 15.0 mg/kg/injection, schedule: Q#A X014 (ip), vehicle: carboxymethylcellulose (CMC)
[3] = dose: 30.0 mg/kg/injection, schedule: Q#A X014 (ip), vehicle: carboxymethylcellulose (CMC)

Cc1cc2nc3c(=O)[nH]c(=O)nc-3n(CC(O)C(O)C(O)C(O)CO)c2cc1C (configuration not stated)
T/C (dose: 31.25 mg/kg/injection, schedule: Q01DX007 (ip), vehicle: carboxymethylcellulose (CMC)): 87 % of control
T/C (dose: 38.25 mg/kg/injection, schedule: Q01DX007 (ip), vehicle: carboxymethylcellulose (CMC)): 54 % of control
T/C (dose: 62.5 mg/kg/injection, schedule: Q01DX007 (ip), vehicle: carboxymethylcellulose (CMC)): 66 % of control
T/C (dose: 76.5 mg/kg/injection, schedule: Q01DX007 (ip), vehicle: carboxymethylcellulose (CMC)): 48 % of control
T/C (dose: 125.0 mg/kg/injection, schedule: Q01DX007 (ip), vehicle: carboxymethylcellulose (CMC)): 83 % of control
T/C (dose: 153.0 mg/kg/injection, schedule: Q01DX007 (ip), vehicle: carboxymethylcellulose (CMC)): 63 % of control
T/C [1]: 60 % of control
T/C (dose: 306.0 mg/kg/injection, schedule: Q01DX007 (ip), vehicle: carboxymethylcellulose (CMC)): 57 % of control

Cc1ncc(CO)c(C)c1O
T/C (dose: 25.25 mg/kg/injection, schedule: Q01DX007 (ip), vehicle: carboxymethylcellulose (CMC)): 102 % of control
T/C (dose: 27.5 mg/kg/injection, schedule: Q01DX007 (ip), vehicle: carboxymethylcellulose (CMC)): 77 % of control
T/C (dose: 50.5 mg/kg/injection, schedule: Q01DX007 (ip), vehicle: carboxymethylcellulose (CMC)): 102 % of control
T/C (dose: 55.0 mg/kg/injection, schedule: Q01DX007 (ip), vehicle: carboxymethylcellulose (CMC)): 54 % of control
T/C (dose: 101.0 mg/kg/injection, schedule: Q01DX007 (ip), vehicle: carboxymethylcellulose (CMC)): 84 % of control
T/C (dose: 110.0 mg/kg/injection, schedule: Q01DX007 (ip), vehicle: carboxymethylcellulose (CMC)): 53 % of control
T/C (dose: 202.0 mg/kg/injection, schedule: Q01DX007 (ip), vehicle: carboxymethylcellulose (CMC)): 71 % of control

OC1C(O)C(O)C2(CO2)C(O)C1O (configuration not stated)
T/C (dose: 150.0 mg/kg/injection, schedule: Q#A X014 (ip), vehicle: saline): 122 % of control
T/C (dose: 300.0 mg/kg/injection, schedule: Q#A X014 (ip), vehicle: saline): 79 % of control

O=C1Cc2ccccc2C(=O)N1
T/C [2]: 84 % of control
T/C [3]: 79 % of control

Cc1ncc([N+](=O)[O-])n1CCCl
T/C (dose: 62.5 mg/kg/injection, schedule: Q01DX007 (ip), vehicle: saline): 108 % of control
T/C (dose: 250.0 mg/kg/injection, schedule: Q01DX007 (ip), vehicle: saline): 78 % of control

O=CC1CO1 (configuration not stated)
T/C (dose: 50.0 mg/kg/injection, schedule: Q01DX007 (ip), vehicle: carboxymethylcellulose (CMC)): 123 % of control

C[C@]12CC[C@@H]3c4ccc(OC5CCCCO5)cc4CC[C@H]3[C@@H]1CC[C@@H]2O (some centres not stated)
T/C (dose: 111.0 mg/kg/injection, schedule: Q01DX007 (ip), vehicle: steriod suspending solution): 55 % of control
T/C (dose: 166.6 mg/kg/injection, schedule: Q01DX007 (ip), vehicle: steriod suspending solution): 20 % of control
T/C (dose: 250.0 mg/kg/injection, schedule: Q01DX007 (ip), vehicle: steriod suspending solution): 24 % of control
T/C (dose: 375.0 mg/kg/injection, schedule: Q01DX007 (ip), vehicle: steriod suspending solution): 17 % of control

CCCCNc1nc(NCCCC)c2nsnc2n1
T/C (dose: 80.0 mg/kg/injection, schedule: Q01DX007 (ip), vehicle: carboxymethylcellulose (CMC)): 46 % of control
T/C (dose: 100.0 mg/kg/injection, schedule: Q01DX007 (ip), vehicle: carboxymethylcellulose (CMC)): 56 % of control

CC(=O)[C@@]1(O)CC[C@H]2[C@@H]3C[C@H](C)C4=CC(=O)C=C[C@]4(C)[C@@]3(F)[C@@H](O)C[C@@]21C
T/C (dose: 6.9 mg/kg/injection, schedule: Q01DX007 (sc), vehicle: steriod suspending solution): 102 % of control
T/C (dose: 16.0 mg/kg/injection, schedule: Q01DX007 (sc), vehicle: steriod suspending solution): 76 % of control
T/C (dose: 17.0 mg/kg/injection, schedule: Q01DX007 (sc), vehicle: steriod suspending solution): 60 % of control
T/C (dose: 24.0 mg/kg/injection, schedule: Q01DX007 (sc), vehicle: steriod suspending solution): 78 % of control
T/C (dose: 26.0 mg/kg/injection, schedule: Q01DX007 (sc), vehicle: steriod suspending solution): 19 % of control and 23 % of control
T/C (dose: 27.5 mg/kg/injection, schedule: Q01DX007 (sc), vehicle: steriod suspending solution): 65 % of control
T/C (dose: 27.5 mg/kg/injection, schedule: Q#A X014 (sc), vehicle: steriod suspending solution): 33 % of control
T/C (dose: 36.5 mg/kg/injection, schedule: Q01DX007 (sc), vehicle: steriod suspending solution): 57 % of control
T/C (dose: 40.0 mg/kg/injection, schedule: Q01DX007 (sc), vehicle: steriod suspending solution): 17 % of control and 23 % of control and 36 % of control
T/C (dose: 41.5 mg/kg/injection, schedule: Q#A X014 (sc), vehicle: steriod suspending solution): 40 % of control
T/C (dose: 60.0 mg/kg/injection, schedule: Q01DX007 (sc), vehicle: steriod suspending solution): 29 % of control
T/C (dose: 62.5 mg/kg/injection, schedule: Q#A X014 (sc), vehicle: steriod suspending solution): 34 % of control and 45 % of control
T/C (dose: 83.0 mg/kg/injection, schedule: Q01DX007 (sc), vehicle: steriod suspending solution): 38 % of control
T/C (dose: 85.0 mg/kg/injection, schedule: Q01DX007 (sc), vehicle: steriod suspending solution): 34 % of control
T/C (dose: 90.0 mg/kg/injection, schedule: Q01DX007 (sc), vehicle: steriod suspending solution): 18 % of control
T/C (dose: 125.0 mg/kg/injection, schedule: Q01DX007 (sc), vehicle: steriod suspending solution): 17 % of control
T/C (dose: 135.0 mg/kg/injection, schedule: Q01DX007 (sc), vehicle: steriod suspending solution): 19 % of control
T/C (dose: 188.0 mg/kg/injection, schedule: Q01DX007 (sc), vehicle: steriod suspending solution): 46 % of control
T/C (dose: 282.0 mg/kg/injection, schedule: Q01DX007 (sc), vehicle: steriod suspending solution): 25 % of control and 26 % of control
T/C (dose: 300.0 mg/kg/injection, schedule: Q01DX007 (sc), vehicle: steriod suspending solution): 34 % of control
T/C (dose: 423.0 mg/kg/injection, schedule: Q01DX007 (sc), vehicle: steriod suspending solution): 20 % of control and 39 % of control
T/C (dose: 500.0 mg/kg/injection, schedule: Q01DX007 (sc), vehicle: steriod suspending solution): 3 % of control
T/C (dose: 600.0 mg/kg/injection, schedule: Q01DX007 (sc), vehicle: steriod suspending solution): 30 % of control
T/C (dose: 630.0 mg/kg/injection, schedule: Q01DX007 (sc), vehicle: steriod suspending solution): 15 % of control
T/C (dose: 900.0 mg/kg/injection, schedule: Q01DX007 (sc), vehicle: steriod suspending solution): 27 % of control
T/C (dose: 945.0 mg/kg/injection, schedule: Q01DX007 (sc), vehicle: steriod suspending solution): 22 % of control
T/C (dose: 1400.0 mg/kg/injection, schedule: Q01DX007 (sc), vehicle: steriod suspending solution): 14 % of control

Nc1ccc(C(=O)NCCCC(=O)O)cc1
T/C (dose: 125.0 mg/kg/injection, schedule: Q01DX007 (ip), vehicle: water): 101 % of control
T/C (dose: 500.0 mg/kg/injection, schedule: Q01DX007 (ip), vehicle: water): 90 % of control

CN(C)[C@@H]1C(=O)C(C(N)=O)=C(O)[C@@]2(O)C(=O)C3=C(O)c4c(O)cccc4C[C@H]3C[C@@H]12
T/C (dose: 20.0 mg/kg/injection, schedule: Q#A X014 (ip), vehicle: other): 64 % of control
T/C (dose: 30.0 mg/kg/injection, schedule: Q#A X014 (ip), vehicle: other): 61 % of control
T/C (dose: 45.0 mg/kg/injection, schedule: Q#A X014 (ip), vehicle: other): 31 % of control

O=CNC(Cc1ccc(N(CCCl)CCCl)cc1)C(=O)O (configuration not stated)
T/C (dose: 22.0 mg/kg/injection, schedule: Q#A X014 (ip), vehicle: methylcellulose (MC)): 61 % of control
T/C (dose: 33.0 mg/kg/injection, schedule: Q#A X014 (ip), vehicle: methylcellulose (MC)): 60 % of control
T/C (dose: 50.0 mg/kg/injection, schedule: Q#A X014 (ip), vehicle: methylcellulose (MC)): 25 % of control
T/C (dose: 75.0 mg/kg/injection, schedule: Q#A X014 (ip), vehicle: methylcellulose (MC)): 11 % of control

CCCCCCCCCCCCCCCCNc1cccc2ccccc12
T/C (dose: 111.0 mg/kg/injection, schedule: Q#A X014 (ip), vehicle: methylcellulose (MC)): 64 % of control and 82 % of control
T/C (dose: 166.5 mg/kg/injection, schedule: Q#A X014 (ip), vehicle: methylcellulose (MC)): 49 % of control and 66 % of control
T/C (dose: 250.0 mg/kg/injection, schedule: Q#A X014 (ip), vehicle: methylcellulose (MC)): 41 % of control

CC(N)C(=O)NC1(C(=O)O)CCCC1 (configuration not stated)
T/C (dose: 7.5 mg/kg/injection, schedule: Q#A X014 (ip), vehicle: carboxymethylcellulose (CMC)): 75 % of control
T/C [2]: 56 % of control
T/C [3]: 62 % of control
T/C (dose: 60.0 mg/kg/injection, schedule: Q#A X014 (ip), vehicle: carboxymethylcellulose (CMC)): 46 % of control

CCCC(=O)OCC1OC(n2cnc3c(=S)nc[nH]c32)C(OC(=O)CCC)C1OC(=O)CCC (configuration not stated)
T/C [1]: 36 % of control
